Reference: US20240150755A1, “MODULATING REGULATORY T CELL FUNCTION IN AUTOIMMUNE DISEASE AND CANCER” (Salk Institute for Biological Studies, priority 2021, published 2024)

Tests used:
Foxp3 target genes = assay: RNA-seq and gene set enrichment analysis in Treg cells; assay type: cell-based, mouse
From the text: For large scale Treg culture, Tregs were first expanded in Rosa-Cas9/Foxp3^Thy1.1 mice by injecting IL-2:IL-2 antibody immune complex according protocol described in Webster et. al (J Exp Med 206, 751-760, 2009). Spleen and lymph node Treg cells were labeled with PE-conjugated Thy1.1 antibody and isolated by magnetic selection using anti-PE microbeads (Mitenyl #130-048-801). All isolated Treg cells were activated by plate bound anti-CD3 and anti-CD28 antibodies and cultured with X-VIVO® 20 media (LONZA #04-448Q) supplemented by 1× Pen/Strep, 1× Sodium pyruvate, 1× HEPES, 1× GlutaMax™, 55 μM beta-mercaptoethanol in the presence of IL-2 at 500 units/mL. For experiments with Brd9 degradation, Treg cells were treated at day 0 with 2.5 μM dBRD9 (Tocris #6606) and cultured for four days for RNA- and ChIP-seq and 0.16-10 μM treated at day 0 and cultured dBRD9 for four days for Foxp3 MFI, cell viability and cell proliferation assays. Live cells were enriched by Ficoll-Paque® 1.084 (GE Health 17-5446-02) for RNA-seq and ChIP-seq.
RNA from 1-3×10^6 cells was extracted and purified with TRIzol™ reagent (Thermo Fisher) according to manufacturer's instructions. RNA-seq libraries were prepared using Illumina® TruSeq® Stranded mRNA kit following manufacturer's instructions with 5 μg of input RNA.
Single-end 50 bp reads were aligned to the mouse genome mm10 using STAR alignment tool (V2.5) (Dobin et al., Bioinformatics 29:15-21, 2013). RNA expression was quantified as raw integer counts using analyzeRepeats.pl in HOMER (Heinz et al., Mol Cell 38:576-589, 2010) using the following parameters: -strand both -count exons -condenseGenes -noadj. To identify differentially expressed genes, getDiffExpression.pl in HOMER was used, which uses the DESeq2R package to calculate the biological variation within replicates. Cut-offs were set at log 2 FC=0.585 and FDR at 0.05 (Benjamin-Hochberg). Principal Component Analysis (PCA) was performed with the mean of transcript per million (TPM) values using Cluster 3.0 with the following filter parameters: at least one observation with absolute value equal or greater than two and gene vector of four. TPM values were log transformed then centered on the mean.
GSEA software (Mootha et al., Nat Genet 34:267-273, 2003; Subramanian et al., PNAS 102:15545-15550, 2005) was used to perform the analyses with the following parameters: number of permutations=1000; enrichment statistic=weighted; and metric for ranking of genes=difference of classes (Input RNA-seq data was log-transformed). For GSEA analysis, input RNA-seq data contained the normalized log-transformed reads of the 1,325 differentially expressed genes (DEGs) in sgFoxp3/sgNT Treg cells. The compiled gene list included GSEA Gene Ontology, Immunological Signature, Curated Gene, and the up and down DEGs in sgBrd9/sgNT Treg cells.
For gene expression analysis in FIG. 42F, Foxp3 ChIP-seq tags were quantified at the union of sites bound by Foxp3 in sgNT and sgBrd9 using the annotatePeaks.pl command in HOMER with size-given and each site was annotated to a gene by mapping to the nearest TSS. Sites were ranked from least to largest Foxp3 ChIP-seq Log2FC in sgBrd9 vs sgNT and divided into quartiles. Gene expression for the genes in the top and bottom quartiles (Brd9-dependent and -independent, respectively) was then plotted using RNA-seq data from Treg cells transduced with sgBrd9, sgSmarcd1, or sgPbrm1 compared to sgNT. […]

[1] = test system: MC38 colorectal tumor cell line; assay: Adoptive T cell transfer and MC38 tumor model; assay type: in vivo, mouse
From the text: Similar to the “Adoptive T cells transfer-induced colitis model,” Treg cells were activated in vitro and transduced with pSIRG-GFP expressing sgNT or sgBrd9. Four days after transduction, the GFP+ transduced Treg were FACS sorted. Concurrently, Treg depleted CD4 and CD8 T cells isolated from Rosa-Cas9/Foxp3^Thy1.1 mice were used as effector T cells. A total of 1 million pSIRG-sgRNA transduced GFP+ Treg cells, 1 million effector CD8 T cells, and 2 million Treg-depleted CD4 T cells were mixed and transferred into Rag1^−/− recipient mice. On the following day, mice were implanted with 0.5 million MC38 cells by subcutaneous injection on the flank of mouse. When palpable tumor appeared, tumor size was measured every two day by electronic calipers. At the end point, spleen and tumor were collected for immune profiling. For tumor processing, tumor tissues were minced into small pieces and digested with 0.5 mg/mL Collagenase IV (Sigma #C5138) and DNAase I (Roche #4716728001) for 20 minutes and passed through […] cell strainer to collect single cell suspension. Isolated cells were stimulated with PMA/Ionomycin and GolgiPlug™ for 5 hours, and then were subjected to Foxp3 and cytokines staining with eBioscience® Fix/Perm buffer (eBioscience #00-5523-00).

[2] = transferred Treg population, vs sgNT

sgBrd9: sgRNA targeting Brd9, ATTAACCGGTTTCTCCCGGG (SEQ ID NO: 12) (expressed or natural sequence)
enrichment of increased/decreased genes among sgFoxp3 regulated genes (GSEA) (Foxp3 target genes; sgBrd9/sgNT vs sgFoxp3/sgNT Treg cells): significantly enriched among genes that increase upon sgFoxp3 targeting | gene expression of Brd9-dependent vs Brd9-independent Foxp3 target genes (Foxp3 target genes; sgRNA transduced Treg cells vs sgNT): significantly more affected | tumor growth ([1]; Rag1^−/− mice receiving sgRNA transduced Treg cells vs sgNT Treg cells): significantly slower | percentage of transferred Treg cells ([1]; relative to sgNT Treg cells): reduced | GFP^+Foxp3^− ex-Treg population [1, 2]: increase | percentage of ex-Treg cells producing IFN-γ [1, 2]: higher percentage | increase in the ratio of CD8 T cells to Treg cells ([1]; tumor and spleen, sgBrd9 versus sgNT): 2-3 fold | CD4 and CD8 T cell tumor infiltration ([1]; vs sgNT Treg cells): significantly increased | percentage of IFN-γ producing intra-tumor CD4 and CD8 T cells ([1]; vs sgNT Treg condition): significantly greater
